Source: patent US10513503B2, “Use of 3-deoxyanthocyanidins for treating occular diseases” (BIOPHYTIS, priority 2015, dated 2019)

What was measured:
RPE cells [1] = details: literature, in words; cited from earlier work
[2] = tested on: primary cultures of retinal pigment epithelium (RPE) of adult pigs; assay: In vitro assay of the photoprotective activity: phototoxicity induced by A2E and blue light, cell survival; assay type: cell-based, pig; details: for Cell survival / viability at 5 µM / viability at 20 µM: A2E 30 μM, blue light 470 nm 50 min, survival after 24 h, living cells vs control wells without A2E x100, A2E controls without molecule 39.7±3.7; for viability at 5 µM / viability at 20 µM: Sus scrofa
Protocol: A cell model of phototoxicity induced by the association of a treatment by the A2E and of an illumination by blue light on primary cultures of RPE, wherein cell survival was measured, was used. This model uses primary cultures of retinal pigment epithelium of adult pigs.
This model makes it possible in particular to carry out the screening of molecules aimed at the discovery of new candidates for a treatment of the dry form of AMD. This model is closer to the “physiological” situation than the cell lines commonly used in literature, because the cells used contain protective substances provided by the diet of the animal and are therefore not in a situation of “deficiency”, and their disturbance is caused by the adding of A2E into the culture medium.
The cell cultivated in 96-well plates were treated for 48 hours with the compounds to be tested (in a 5 mM solution in the DMSO) in such a way as to obtain final concentrations of 5 or 20 μM), of which the last 19 hours in the presence of A2E (final concentration 30 μM). […] Cell survival is measured after 24 hours.
Cell survival and death are detected 24 hours after the induction of the phototoxicity by colouration of the cells with Hoechst (a nuclear marker) and with ethidium (a marker of the nuclei of dead cells). Images of each well are acquired on a fluorescent microscope equipped with a motorised stage controlled by the Metamorph software, and cell survival is quantified by a dedicated quantification program. The experiments are conducted on 96-well microplates in quadruplicate and each experiment is reproduced at least four times.
The results are expressed in the form of a ratio representing the number of living cells in the wells treated by the molecules to be tested divided by the number of living cells in the control wells (treated with the dilution medium without A2E) and multiplied by 100.

RPE cells [3] = details: literature, in words; cited from earlier work; remark: listed apart in the source
[4] = tested on: genetically modified mouse model (ABCA4 and Rdh8 inactivated); assay: In vivo assay of the photoprotective activity in mice (blue light exposure after intravitreal injection); details: unilateral intravitreal injection, 100-130 μM in the vitreous, blue light 4000 lux 1 h
From the text: A genetically modified mouse model developed by Maeda et al. (Invest Ophthalmol. Vis. Sci., 2009, 50, 4917-4925) was used to test the photoprotective activity of the compounds of the invention.
In this mouse model, two genes involved in the visual pigment cycle (ABCA4 and Rdh8, see FIG. 1) are inactivated, which results in an early accumulation of A2E in the eyes. This animal model is therefore representative of the human pathology.
Mice aged 7 weeks were used to carry out the unilateral intravitreal injections of solubilised diosmetinidin ([…]) in DMSO and diluted in PBS (1.2:100), in order to obtain a concentration in the vitreous of 100-130 μM. DMSO diluted in the PBS was injected into the control animals. After 24 h in the dark, the mice were subjected to an exposure to blue light (4000 lux, 1 h).

Row | Molecule | Cell survival ([2]; 20 μM compound for 48 h) [%] | viability at 20 µM ([2]; 20 μM compound for 48 h) [%] | other results
1 | COc1cc(-c2[o+]c3cc(O)cc(O)c3cc2O)cc(OC)c1O.[Cl-] [Malvidin, malvidin] | 51.5 ± 6.9 | – | effectiveness for cell survival of the RPE cells (RPE cells [1]): ineffectiveness; photoprotective effect on the RPE cells (RPE cells [3]): contrary
2 | COc1ccc(-c2ccc3c(O)cc(O)cc3[o+]2)cc1O.[Cl-] [Compound 5, 3′,5,7-trihydroxy-4′-methoxy-flavylium chloride (diosmetinidin)] | – | 90.8 ± 3.6 | viability at 5 µM ([2]; 5 μM compound for 48 h): 84.5 ± 1.4%; electroretinograms (wave A, wave B electrical activity) ([4]; 7 days later): protective effect; survival of the photoreceptors (number of layers of photoreceptors) ([4]; FIG. 4): good survival
3 | Oc1ccc(-c2[o+]c3cc(O)c(O)c(O)c3cc2O)cc1O [Quercetagetinidin, quercetagetinidin] | 54.3 ± 6.6 | – | –
4 | COc1ccc(-c2ccc3ccc(O)cc3[o+]2)cc1OC | – | 46.1 ± 4.7 | –
5 | guibourtinidin | 42.8 ± 6.9 | – | –
6 | COc1ccc(-c2ccc3ccc(O)cc3[o+]2)c(O)c1 [Compound 1, 2′,7-dihydroxy-4′-methoxy-flavylium chloride] | – | 89.9 ± 4.9 | –
7 | COc1ccc(-c2ccc3ccc(OC)cc3[o+]2)c(O)c1 | – | 39.2 ± 7.4 | –
8 | COc1ccc(-c2ccc3ccc(O)cc3[o+]2)c(O)c1O [Compound 2, 2′,3′,7-trihydroxy-4′-methoxy-flavylium chloride] | – | 86.7 ± 2.3 | –
9 | Oc1ccc2cc(O)c(-c3ccc(O)c(O)c3)[o+]c2c1 [Fisetinidin, fisetinidin] | 39.3 ± 3.2 | – | –
10 | COc1ccc2ccc(-c3ccc(OC)c(OC)c3)[o+]c2c1 | – | 48.7 ± 5.5 | –
11 | Oc1cc(O)c2cc(O)c(-c3cc(O)c(O)c(O)c3)[o+]c2c1 [Delphinidin, delphinidin] | 57.8 ± 5.6 | – | effectiveness for cell survival of the RPE cells (RPE cells [1]): ineffectiveness; Cell survival ([2]; 5 μM compound for 48 h): 40.5 ± 6.2%; photoprotective effect on the RPE cells (RPE cells [3]): photoprotective effect
12 | Oc1cc(O)c2ccc(-c3cc(O)c(O)c(O)c3)[o+]c2c1 [Compound 6, 3′,4′,5′,5,7-pentadroxy-flavylium chloride (tricetinidin)] | – | 99.3 ± 3.3 | viability at 5 µM ([2]; 5 μM compound for 48 h): 74.9 ± 4.2%
13 | Oc1ccc(-c2ccc3c(O)cc(O)c(O)c3[o+]2)cc1O [Gossypetinidin, gossypetinidin] | 36.5 ± 14.4 | – | –
14 | Oc1ccc(-c2ccc3c(O)cc(O)cc3[o+]2)cc1 [Compound 4, 4′,5,7-trihydroxy-flavylium chloride (apigeninidin)] | – | 89.5 ± 3.5 | viability at 5 µM ([2]; 5 μM compound for 48 h): 71 ± 3.6%
15 | Oc1cc(O)c2ccc(-c3ccc(O)c(O)c3)[o+]c2c1 [Compound 7, 3′,4′,5,7-tetrahydroxy-flavylium chloride (luteolinidin)] | – | 93.6 ± 6.7 | viability at 5 µM ([2]; 5 μM compound for 48 h): 72 ± 4.4%
16 | Oc1cc(O)c2cc(O)c(-c3ccc(O)c(O)c3)[o+]c2c1 [Cyanidin, cyanidin] | 92.9 ± 1.9 | – | effectiveness for cell survival of the RPE cells (RPE cells [1]): ineffectiveness; Cell survival ([2]; 5 μM compound for 48 h): 56.4 ± 8.8%; photoprotector effect ([2]; at 20 μM, in words): substantial photoprotector effect; effectiveness of the photoprotection ([2]; at a lower concentration (5 μM), in words): substantially reduced; photoprotective effect on the RPE cells (RPE cells [3]): photoprotective effect
17 | COc1cc(-c2[o+]c3cc(O)cc(O)c3cc2O)cc(O)c1O [Petunidin, petunidin] | 67.2 ± 6.9 | – | effectiveness for cell survival of the RPE cells (RPE cells [1]): ineffectiveness
18 | COc1ccc(-c2ccc3ccc(O)cc3[o+]2)cc1O [Compound 3, 3′,7-dihydroxy-4′-methoxy-flavylium chloride] | – | 77 ± 2.7 | –
